Test results as given in patent US20060167106A1, “Compounds acting at the centrosome” (priority 2004, published 2006).
“Also recorded” adds a separate entry of the source. Non-standard residues stand in square brackets, D forms with d. Residues, ends and D or L forms follow the SMILES beside them. *: point of attachment. Nva = CCC[C@H](N)C(=O)O; Cbz = O=C(OCc1ccccc1)*

Columns and labels:
26S proteasome = test: Proteasome-sensor cells (HEK-293, GFP chimera), fluorescence imaging; assay type: cell-based; conditions: HEK-293, 0.5 μM, 24 hours
Text: Specifically, the proteasome-sensor cells are HEK-293 cells stably transfected with a vector (proteasome-sensor vector) that encodes naturally-occurring reef coral Zoanthus sp. green fluorescent protein (GFP) fused to a specific degradation motif that targets the fusion protein for removal by the 26S proteasome. The background fluorescence observed in normal cells with active proteasomes is low. When proteasomes are inhibited, the fluorescent protein quickly accumulates. […] Millennium Pharmaceuticals, Inc., Cambridge, Mass.). […] Velcade (Millennium Pharmaceuticals Inc.) was used as a positive control in this assay (at 5 nM, 50 nM, 500 nM or 5 μM). Velcade stock solution was prepared according to the manufacturer's instructions. GFP fluorescence of the cells was imaged at various time points using a standard filter for FITC with the Nikon TE300 microscope/digital imaging system described herein.

[1] = biological target: T1, bovine red blood cell 20S proteasome (Bos taurus, UniProt Q32KL2); test: 20S Proteasome Assay (in vitro, Suc-Leu-Val-Tyr-AMC); assay type: biochemical; conditions: isolated 20S proteasome
T1 construct: bovine red blood cell 20S proteasome; purchased Calbiochem; host or cells: purified from bovine red blood cells
Description: 190 μl of reaction buffer (500 mM HEPES, 10 nM EDTA, pH 7.6), containing 0.03% SDS was pre-incubated for 5 minutes at 37° C. in the presence of 0.2 μg of bovine red blood cell 20S proteasome (Calbiochem, San Diego, Calif.) for temperature equilibration. Subsequently, inhibitors or Compound 1 were added to the reaction mixture at a final DMSO concentration of 0.5%. The reaction was initiated by adding 10 μl of the peptide-AMC substrate (Calbiochem, San Diego, Calif.) to each well. The emitted fluorescence was then measured every third minute at 37° C. for 90 minutes by a fluorescence plate reader (FlexStation II, Molecular Devices, Sunnyvale, Calif.) at 460 nm (λex360 nm) wavelength.
The buffers and reagents for the assay were purchased from Calbiochem (20S Proteasome Assay Kit; Calbiochem, San Diego, Calif.). The principle of the assay is that the release of free AMC (7-Amino-4-methylcoumarin) following degradation of the substrate results in a fluorescent signal that is a measure of proteasome activity. The quantitative analysis of 20S proteasome activity was assayed as described.

CHO-α-tubulin-YFP cells = test: α-tubulin-YFP localization in CHO-α-tubulin-YFP cells (fluorescence imaging); assay type: cell-based, Chinese hamster; conditions: for accumulation of α-tubulin-YFP in the nucleus: 8 hours post-treatment; for accumulation of tubulin at the centrosomes versus in the nucleus (overall statement): cells treated, concentration not given
Text: Wild-type Chinese Hamster Ovary cells (WT CHO) cells were maintained in Ham's F-12 medium supplemented with 10% fetal bovine serum (FBS; HyClone, Logan, Utah). Cells of low density (˜20%) growing on 2-well chambered cover-slips (Labtek (Campbell, Calif.) or Fisher Scientific) were transfected with a mammalian expression vector encoding α-tubulin-YFP (Clontech, Palo Alto, Calif.) with the use of FuGENE 6 (Roche Molecular Biochemicals, Indianapolis, Ind.), according to the manufacturer's instructions. Twenty-four hours after transfection, the cells were cultured in 400 μg/ml G418 (Invitrogen, Carlsbad, Calif.)-containing selection medium for 2 weeks. Living cells were examined using a fluorescent microscope for α-tubulin-YFP expression. Cells in single colonies containing microtubules labeled with α-tubulin-YFP were lifted and expanded in G418-containing medium. Expression of α-tubulin-YFP was confirmed by the presence of the tubulin-YFP labeled microtubule pattern identical to immunostained microtubule pattern of non-transfected cells, as well as by subjecting the cells to Western blot analysis using an anti-GFP antibody (Roche Molecular Biochemicals, Basel, Switzerland) and confirming the correct mass of the α-tubulin-YFP chimera protein. Expressed tubulin-YFP was detected as a single band in Western blots. The tubulin-YFP expressing cell lines (referred as CHO-α-tubulin-YFP cells) were used in the studies.
CHO-α-tubulin-YFP cells were cultured in 2-well chambered cover-slips (Labtek (Campbell, Calif.) or Fisher Scientific) 24 hours before treatment. For comparison of the centrosomal effects of treatment with Compound 1, Compound 1+Taxol, and Taxol, CHO-α-tubulin-YFP cells were treated with Compound 1, Compound 1+Taxol, Taxol, or equivalent concentrations of DMSO-containing media for various time periods before imaging. For comparison of the effects of Compound 1 and known proteasome inhibitors on centrosomes, the nucleus, and perinuclear regions, CHO-α-tubulin-YFP cells were treated with Compound 1, ALLN (Calbiochem, San Diego, Calif.), lactacystin (Calbiochem, San Diego, Calif.) or MG132 (Calbiochem, San Diego, Calif.), and imaged at various time points from 3 hours to 24 hours after treatment.
Tubulin-YFP fluorescence in living cells or fixed cells was captured using a standard filter for FITC and objectives of 20× or 60× magnification on a Nikon TE300 microscope with a Leica DC50 color digital camera (Leica, Bannockburn, Ill.) or a CoolSnap HQ Monochrome CCD camera (Photonetrics, Tucson, Ariz.). The Leica DC50 and CoolSnapHQ cameras were controlled with Leica DC50 software and MetaVue/MetaMorph software, respectively (Universal Imaging Corp, Downingtown, Pa.).
CHO-α-tubulin-YFP cells were cultured in 2-well chambered cover-slips (Labtek (Campbell, Calif.) or Fisher Scientific) 24 hours before treatment. For comparison of effects on the centrosome, nucleus, and perinuclear regions, cells were treated with Compound 1 and known proteasome inhibitors including ALLN, MG132, Lactacystin, MG115, clasto-Lactacystin β-Lactone (cLβL), and Epoxomicin (10 μM final concentration for all except ALLN, which was used at 100 μM final concentration) (proteasome inhibitors were from Calbiochem, San Diego, Calif.) and imaged at various time points up to 24 hours during treatment.
Tubulin-YFP fluorescence in living cells or fixed cells was captured using a standard filter for FITC and objectives of 20× or 60× magnification on the Nikon TE300 microscope/digital imaging system.

| SMILES | accumulation of tubulin-YFP at the centrosomes (CHO-α-tubulin-YFP cells; CHO cells, 10 μM, 24 hours) | accumulation of α-tubulin-YFP in the nucleus (CHO-α-tubulin-YFP cells; CHO cells, 10 μM) | accumulation of tubulin at the centrosomes versus in the nucleus (overall statement) (CHO-α-tubulin-YFP cells) | further results |
| --- | --- | --- | --- | --- |
| CN(NC(=O)CC(=O)NN(C)C(=S)c1ccccc1)C(=S)c1ccccc1 [Compound 2] | – | – | – | accumulation of proteasome-sensor protein in cells (26S proteasome): accumulation of proteasome-sensor protein in cells; proteasome inhibitory activity in vitro ([1]; 50 μM): neither Compound 1 nor its salt form, Compound 2, displayed significant proteasome inhibitory activity |
| CN(NC(=O)CC(=O)NN(C)C(=S)c1ccccc1)C(=O)c1ccccc1 [Compound 3] | – | – | – | accumulation of tubulin-YFP at the centrosomes (CHO-α-tubulin-YFP cells; CHO cells, 5 μM, 4 hours): lack of accumulation of tubulin-YFP at the centrosomes |
| Cc1cc(NC(=O)C(=O)c2cc(Cc3ccc(C#N)cc3)n3ccccc23)sn1 [Compound 4] | lack of accumulation of tubulin-YFP at the centrosomes | – | – | – |
| C/C1=C/C[C@@H](/C(C)=C/c2csc(C)n2)OC(=O)C[C@H](O)C(C)(C)C(=O)[C@H](C)[C@@H](O)[C@@H](C)CCC1 [Epothilone D] | lack of accumulation of tubulin-YFP at the centrosomes | – | – | – |
| CC[C@H](C)[C@H](NC(=O)[C@H]([C@@H](C)CC)N(C)C(C)=O)C(=O)N[C@H](C(=O)N[C@@H](CC(C)C)C(=O)[C@@]1(C)CO1)[C@@H](C)O [Epoxomicin] | – | accumulation of α-tubulin-YFP in the nucleus; also recorded: caused the accumulation of YFP-tubulin in the nucleus | both accumulation of tubulin at the centrosomes and in the nucleus | – |
| CC(=O)N[C@@H](CSC(=O)[C@]1([C@@H](O)C(C)C)NC(=O)[C@H](C)[C@@H]1O)C(=O)O [Lactacystin] | accumulation of tubulin-YFP at the centrosomes | accumulation of α-tubulin-YFP in the nucleus; also recorded: caused the accumulation of YFP-tubulin in the nucleus | both accumulation of tubulin at the centrosomes and in the nucleus | accumulation of α-tubulin-YFP at the centrosomes (CHO-α-tubulin-YFP cells; CHO cells, 10 μM, 5 hours): accumulation of α-tubulin-YFP at the centrosomes and perinuclear regions; accumulation of tubulin in the centrosomes (overall statement) (CHO-α-tubulin-YFP cells; CHO-tubulin-YFP cells, concentration and time not given): caused accumulation of tubulin-YFP at the centrosomes and in the perinuclear region; proteasome inhibitory activity in vitro (overall statement) [1]: exhibited proteasome inhibitory activity; proteasome activity in vitro ([1]; 5 nM): detectable decrease in proteasome activity |
| CCC[C@@H](C=O)NC(=O)[C@H](CC(C)C)NC(=O)[C@H](CC(C)C)NC(=O)OCc1ccccc1 [MG115] (Cbz-Leu-Leu-[Nva]-aldehyde) | – | caused the accumulation of YFP-tubulin in the nucleus | both accumulation of tubulin at the centrosomes and in the nucleus | accumulation of α-tubulin-YFP in the nucleus (CHO-α-tubulin-YFP cells; CHO cells, 10 μM, listed as MG-115): accumulation of α-tubulin-YFP in the nucleus |
| CC[C@]1(O)C[C@H]2CN(CCc3c([nH]c4ccccc34)[C@@](C(=O)OC)(c3cc4c(cc3OC)N(C=O)[C@H]3[C@@](O)(C(=O)OC)[C@H](OC(C)=O)[C@]5(CC)C=CCN6CC[C@]43[C@@H]65)C2)C1 [Vincristine] | – | – | – | accumulation of tubulin-YFP at the centrosomes (CHO-α-tubulin-YFP cells; CHO cells, 1 μM, 24 hours): lack of accumulation of tubulin-YFP at the centrosomes |
| CC(C)[C@H](O)[C@@]12NC(=O)[C@H](C)[C@@H]1OC2=O [clasto-Lactacystin β-Lactone] | – | accumulation of α-tubulin-YFP in the nucleus; also recorded: caused the accumulation of YFP-tubulin in the nucleus | both accumulation of tubulin at the centrosomes and in the nucleus | – |
